Non-standard residues stand in square brackets, D forms with d. No end group written: not given here. *: point of attachment. FITC = O=C1OC2(c3ccc(O)cc3Oc3cc(O)ccc32)c2ccc(NC(=S)*)cc21; Ahx = NCCCCCC(=O)O
Experiments:
HT-1080 cells tumor = experiment: Growth-inhibition and apoptosis of cancer cells in tumor-bearing mice; format: in vivo, BALB/c nude mouse; details: 10 mg/kg intraperitoneally every 3 days
Procedure: HT-1080 cells (1×10^7 cells/200 μL) were subcutaneously implanted into the back of 5 week-old BALB/c nude mouse (CHARLES RIVER LABORATORIES JAPAN, INC.). A tumor after the implantation was confirmed to reach 30 to 60 mm^3, and then they were subjected to the following tests.
Example 2 was dissolved in the sterile water and adjusted to be 200 μg/200 μL by the addition of 2-time concentrated α-MEM (not containing glutamine or an antibiotic). It was intraperitoneally administered to tumor-bearing mice at 10 mg/kg every 3 days. In the control administration group, 200 μL of 1-time concentrated α-MEM was intraperitoneally administered to tumor-bearing mice every 3 days. The mice were weighed on DRETEC weighing scale (DRETEC CO., Ltd., Japan) and the tumor size (estimation volume (shortest diameter×longer diameter×height×pi/6 mm^3)) was measured with a vernier caliper (maximum: 150 mm, minimum: 0.05 mm) (MITUTOYO, Japan) every 3 days.
FIG. 6 is a graph illustrating the transitions of tumor size in the Example 2 and control administration group (N=6). The vertical axis represents the average value of tumor size±standard deviation (SD), and the horizontal axis represents the days after administration. […] In the control administration group, the tumor size on day 24 was more than 1,500 mm^3. On the other hand, the effect of suppressing tumor growth was confirmed as the tumor size was about 600 mm^3 in the Example 2 administration.

Hos cells = experiment: Test of inducing cell-death in vitro (Calcein-AM/PI dead cell rate); format: cell-based, human; details: 50 μg/mL, 9 days
Source text: (§1) Human fibrosarcoma-derived HT-1080 cells (HT-1080 cells, JCRB cell bank) were used as cancer cells in the test for monitoring changes in mitochondrial membrane potential. HT-1080 cells, human osteosarcoma cell line Hos cells (Hos cells, JCRB cell bank), human histiocytic lymphoma/macrophage U937 cells (U937 cells, JCRB cell bank), human myeloid leukemia HL-60 cells (HL-60 cells, JCRB cell bank), acute monocytic leukemia THP-1 cells (THP-1 cells, JCRB cell bank), human alveolar basal epithelial adenocarcinoma cell A549 cells (A549 cells, Cell Resource Center for Biomedical Research, Institute of Development, Aging and Cancer, Tohoku University), human pancreatic carcinoma cells (MIA Paca 2 cells, Cell Resource Center for Biomedical Research, Institute of Development, Aging and Cancer, Tohoku University) and well differentiated human liver carcinoma-derived cell line HuH7 cells (HuH7 cells, Cell Resource Center for Biomedical Research, Institute of Development, Aging and Cancer, Tohoku University) were used as cancer cells in an in vitro cell-death induction test of cancer cells and a nuclear transport test of Example 2. Normal human gingival fibroblast cells Gin-1 (Gin-1 cells, DS Pharma Biomedical) were used as a control. The above-described cells were each inoculated into a 96-well culture plate (Falcon) at 5,000 cells/[…] and subjected to the following tests.
(§2) The peptide of SEQ ID NO: 1 labeled with FITC (Example 2) was used for the test of inducing cell-death in vitro in cancer cells. It was prepared the test example to which 100 μL of Example 2 and further 10% FBS were added and cultured for 9 days under conditions of 200 μL of serum-supplemented medium (Alpha modification of Eagle's MEM (α-MEM) (Thermo Fisher Scientific)+10% FBS). Furthermore, it was also produced the test example that was cultured for 21 days with the whole amount of Example 2-supplemented medium replaced every 7 days. As a control, the cells were cultured in a serum-supplemented medium (α-MEM+10% FBS) without addition and were used. A supernatant was removed after the completion of the culture. The cells were washed once with PBS and stained in PBS to which a fluorescent dye for living cell staining Calcein-AM (DOJINDO LABORATORIES) (final concentration: 0.1 μg/mL) and a fluorescent dye for dead cell staining Propidium Iodide (PI) (DOJINDO LABORATORIES) (final concentration: 0.3 μg/mL) were added, at 37° C. in a 5% CO2 cell incubator for 30 minutes. The living cells and dead cells were separately stained with Calcein-AM and PI, respectively and imaged with the confocal laser scanning microscope LSM800. Next, the dead cell rate relative to the number of total cells was analyzed using ImageJ.
(§3) The results are represented by the average value of the dead cell rate (the number red cells stained with IP/the number of total cells×100(%))±standard deviation (SD). In FIG. 2A, the vertical axis represents the rate of cell death when each cell was cultured with Example 2 (50 μg/mL) for 9 days and the horizontal axis represents various types of cells. The increase in the dead cell rate of the Gin-1 cells was not observed.

U937 cells = experiment: as above; format: cell-based, human; details: 50 μg/mL, 9 days
Source text: as §1, §2, §3

CD13 = molecular target: T1, CD13 (Homo sapiens, UniProt P15144); experiment: Analytical test of binding protein by immunoprecipitation; details: HT-1080 cells, 80 μg/400 μL, 4° C., 2 hours
T1 construct: endogenous in cells; host or cells: HT-1080 cells
Procedure: Example 2 (80 μg/400 μL) reacted to HT-1080 cells (40 million cells) at 4° C. for 2 hours. The cells were then washed with PBS, and centrifuged. The centrifuged cells were dissolved in 1,000 μL of IP Lysis/Wash buffer (Thermo Fisher Scientific) with Halt Protease & Phosphatase inhibitor Single-Use Cocktail, ETDA-Free (Thermo Fisher Scientific) (10 μL) at 4° C. for 5 minutes. It was centrifuged at 4° C. for 10 minutes and the supernatant was collected. The supernatant was adjusted to be 1 mg in amount of protein and 80 μL of A/G agarose was added to it. The mixture was stirred at 4° C. for 1 hour and then centrifuged for 1 minute. Thus, a pre-treatment solution was obtained. 10 μg of IgG Fraction Monoclonal Mouse Anti-Fluorescein (FITC) (Jackson ImmunoResearch) or 10 μg of Mouse IgG Isotype Control (Thermo Fisher Scientific) was each added to the pre-treatment solution (1 mg/600 μL), and the mixtures were shaken at 4° C. overnight. Subsequently, 20 μL of A/G agarose was added and the mixtures were shaken at 4° C. for 2 hours. The mixtures were washed three times with the wash buffer described above and 20 μL of 2×Non-reducing Lane Marker Sample Buffer (Thermo Fisher Scientific) was added to the A/G agaroses. […]
The 10% solution used in immunoprecipitation was loaded to the left lane of FIG. 3. […] CD13 was not detected on the right lane, but CD 13 was detected on the center lane.

T1 sequence (P15144 whole entry): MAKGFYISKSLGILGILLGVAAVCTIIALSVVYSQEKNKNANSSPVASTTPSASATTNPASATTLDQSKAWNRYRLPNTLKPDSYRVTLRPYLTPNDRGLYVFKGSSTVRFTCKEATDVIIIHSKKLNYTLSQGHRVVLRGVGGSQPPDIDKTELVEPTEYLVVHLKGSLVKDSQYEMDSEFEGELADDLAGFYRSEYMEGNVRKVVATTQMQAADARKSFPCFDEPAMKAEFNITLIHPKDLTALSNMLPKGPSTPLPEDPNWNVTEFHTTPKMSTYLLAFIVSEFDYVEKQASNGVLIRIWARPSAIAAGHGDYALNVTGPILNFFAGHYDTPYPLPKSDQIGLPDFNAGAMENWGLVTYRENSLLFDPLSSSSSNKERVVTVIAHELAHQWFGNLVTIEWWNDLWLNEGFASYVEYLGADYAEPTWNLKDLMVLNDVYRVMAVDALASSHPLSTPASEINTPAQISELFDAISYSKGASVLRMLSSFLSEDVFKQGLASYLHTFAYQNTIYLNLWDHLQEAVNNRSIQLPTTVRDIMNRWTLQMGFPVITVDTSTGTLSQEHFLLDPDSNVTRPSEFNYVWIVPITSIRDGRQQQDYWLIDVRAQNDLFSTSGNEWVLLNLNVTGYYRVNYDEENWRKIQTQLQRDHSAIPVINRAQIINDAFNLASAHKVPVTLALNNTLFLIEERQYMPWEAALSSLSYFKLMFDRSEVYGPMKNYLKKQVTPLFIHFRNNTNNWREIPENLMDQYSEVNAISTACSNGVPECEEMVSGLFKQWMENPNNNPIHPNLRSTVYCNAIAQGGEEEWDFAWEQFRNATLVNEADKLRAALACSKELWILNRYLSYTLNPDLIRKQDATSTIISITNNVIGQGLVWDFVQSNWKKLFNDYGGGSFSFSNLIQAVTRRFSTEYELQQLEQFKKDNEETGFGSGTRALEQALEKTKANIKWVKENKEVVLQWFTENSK

Example 2: peptide of SEQ ID NO: 1 labeled with FITC, bound via an Ahx linker at the N-terminus ({FITC}-[Ahx]KDNRGNLLQCVCTGNGRGEWKC; cysteine pairing not given here)
growth inhibition of the tumor compared with the control administration group (HT-1080 cells tumor; between days 12 and 24): significant difference at a level of 1%
tumor size (HT-1080 cells tumor; day 24, N=6): about 600 mm^3
tumor shrinkage (HT-1080 cells tumor; to the 33th day): tendency to shrink the tumor was confirmed
increase in the dead cell rate vs control (Hos cells): significant difference at the level of 1%
increase in the dead cell rate vs control (U937 cells): significant difference at the level of 1%
binding to CD13 (co-immunoprecipitation with anti-FITC, Western blotting) (CD13): proved to bind to CD13 on a cell membrane specifically

Source: patent US12472226B2, “Cell-permeable peptide” (priority 2019, dated 2025)
